Results from patent US7579462B2, “Process for preparing 17-allyl amino geldanamycin (17-aag) and other ansamycins” (Conforma Therapeutics Corporation, priority 2001, dated 2009).

Assay: Relative solubility of 17-AAG polymorphs in solvents and oils
Type: physicochemical
Conditions: lower melting point form (about 147-153° C.) compared with higher melting point form (about 200-212° C.) of 17-AAG; at room temperature
Source text: Indeed, one aspect of the invention is the ability to form and exploit different polymorphic structures. […] The water may be premixed with the ethanol or later added to the ethanol solution already containing 17-AAG dissolved therein. […] Depending on the end-goal, one may readily convert one form to another simply by dissolving and crystallizing in the appropriate solvent.

C=CCNC1=C2C[C@@H](C)C[C@H](OC)[C@H](O)[C@@H](C)/C=C(\C)[C@H](OC(N)=O)[C@@H](OC)/C=C\C=C(/C)C(=O)NC(=CC1=O)C2=O [17-AAG, 17-allylamino-geldanamycin]
solubility in a variety of solvents and oils: more readily soluble
